According to patent publication US20210346357A1 (priority 2020, published 2021):
Where two headings read alike, the source gives them in different places.

Tests used:
[1] = Phase 1 SAD/MAD study of inhaled compound 1 in healthy subjects; format: in vivo, human; settings: for AUC(0-t): read-out: AUC0-24
Protocol: This is a phase 1, 2-part, double-blind, randomized, placebo controlled, sponsor-open, SAD (Part A) and MAD (Part B). Subjects will participate in only 1 cohort in only 1 study part.
Part A (SAD): three (3) cohorts of 8 healthy subjects (6 active and 2 placebo). In each cohort, subjects received a single inhaled dose of compound 1 or placebo. […] Cardiodynamic monitoring via Holter monitors was conducted pre-dose and for at least 24 hours following dosing on Day 1 in each cohort, with rest periods for cardiodynamic electrocardiogram (ECG) extractions time matched to the PK sampling time points.
Part B (MAD): three (3) cohorts of 10 healthy subjects (8 active and 2 placebo). In each cohort, subjects received inhaled doses once daily (QD) for 7 days. […] Blood samples for PK assessment were also collected pre-dose on the morning of Days 3 through 6. Cardiodynamic monitoring via Holter monitors may be conducted pre-dose on Day 1 and pre-dose and for at least 24 hours following dosing on the morning of Day 7 in each cohort with rest periods for cardiodynamic ECG extractions time matched to the PK sampling time points.
Parts A and B: safety (i.e., physical examinations, vital signs, 12-lead safety ECGs, spirometry, clinical laboratory tests, and adverse events [AEs]) were assessed throughout the study; blood and urine samples were collected for safety assessments. All subjects who received at least one dose of study drug (including subjects who terminated the study early) returned to the CRU 7 (±2) days after the last study drug administration for follow-up procedures, and to determine if any AEs have occurred since the last study visit.
Part B: subjects received inhaled doses QD for 7 days using a nebulizer device.
Morning doses on Days 1 and 7 were administered under fasting conditions due to cardiodynamic monitoring. On all other times, doses were administered at least 30 minutes after completion of a meal or snack. Hour 0 was defined as the beginning of inhalation in each morning dose administration.
AUC0-24, AUC0-∞, Cmax and t1/2 are presented as arithmetic mean (standard deviation). Tmax is presented as median (minimum, maximum).

[2] = Pharmacokinetics in plasma and lung in mouse; format: in vivo; settings: single oral aspiration 0.2 mg/mL 50 μL
Protocol: Assay 5: Pharmacokinetics in Plasma and Lung in Mouse
Plasma and lung concentrations of test compounds and ratios thereof were determined in the following manner. BALB/c mice from Charles River Laboratories were used in the assay. Test compounds were individually formulated in 20% propylene glycol in pH 4 citrate buffer at a concentration of 0.2 mg/mL and 50 μL of the dosing solution was introduced into the trachea of a mouse by oral aspiration. At various time points (typically 0.167, 2, 6, 24 hr) post dosing, blood samples were removed via cardiac puncture and intact lungs were excised from the mice. Blood samples were centrifuged (Eppendorf centrifuge, 5804R) for 4 minutes at approximately 12,000 rpm at 4° C. to collect plasma. […] Plasma and lung concentrations of test compound were determined by LC-MS analysis against analytical standards constructed into a standard curve in the test matrix. A lung-to-plasma ratio was determined as the ratio of the lung AUC in μg hr/g to the plasma AUC in μg hr/mL, where AUC is conventionally defined as the area under the curve of test compound concentration vs. time.

[3] = Human plasma protein binding; format: in vitro ADME
[4] = healthy subjects, 1 mg to 10 mg
[5] = human, plasma, inhaled or intranasal, 1 mg, healthy subjects, inhaled 1 mg QD, Day 1, mean
[6] = human, plasma, inhaled or intranasal, 1 mg, healthy subjects, inhaled 1 mg QD, Day 7, mean
[7] = human, plasma, inhaled or intranasal, 1 mg, healthy subjects, single inhaled dose 1 mg, mean
[8] = human, plasma, inhaled or intranasal, 3 mg, healthy subjects, inhaled 3 mg QD, Day 1, mean
[9] = human, plasma, inhaled or intranasal, 3 mg, healthy subjects, inhaled 3 mg QD, Day 7, mean
[10] = human, plasma, inhaled or intranasal, 3 mg, healthy subjects, single inhaled dose 3 mg, mean
[11] = human, plasma, inhaled or intranasal, 10 mg, healthy subjects, inhaled 10 mg QD, Day 1, mean
[12] = human, plasma, inhaled or intranasal, 10 mg, healthy subjects, inhaled 10 mg QD, Day 7, mean
[13] = human, plasma, inhaled or intranasal, 10 mg, healthy subjects, single inhaled dose 10 mg, mean

With `CCc1cc(O)ccc1-c1ccc2c(-c3nc4c([nH]3)CN(C(C)C)[C@H](C(=O)N3CC(N(C)C)C3)C4)n[nH]c2c1` [Compound 1, (S)-(3-(dimethylamino)azetidin-1-yl)(2-(6-(2-ethyl-4-hydroxyphenyl)-1H-indazol-3-yl)-5-isopropyl-4,5,6,7-tetrahydro-3H-imidazo[4,5-c]pyridin-6-yl)methanone] as the compound, how does the “changes in laboratory parameters, vital signs, or ECGs” value [1, 4] read?
The value was “no clinically relevant changes”.

What about the “severity of adverse events” value [1, 4] of the same compound?
Its value is “mild or moderate”.

What about the Tmax ([1]; healthy subjects, inhaled 1 mg QD, Day 1, median) of the same compound?
The Tmax was 1.0 h.

And the Tmax ([1]; healthy subjects, inhaled 1 mg QD, Day 7, median)?
The Tmax was 1.0 h.

And the Tmax ([1]; healthy subjects, inhaled 3 mg QD, Day 1, median)?
Its Tmax is 1.0 h.

And the Tmax ([1]; healthy subjects, inhaled 3 mg QD, Day 7, median)?
The Tmax was 1.0 h.

What about the Tmax ([1]; healthy subjects, inhaled 10 mg QD, Day 1, median) of the same compound?
The Tmax was 1.0 h.

And the Tmax ([1]; healthy subjects, inhaled 10 mg QD, Day 7, median)?
The Tmax was 1.0 h.

What about the tolerability ([1]; healthy subjects, single daily doses 1 mg to 10 mg for 7 days) of the same compound?
Its tolerability is “well tolerated”.

What about the t1/2 ([1]; healthy subjects, single inhaled dose 3 mg, mean) of the same compound?
The t1/2 was 24.73 h.

What about the Cmax [1, 5] of the same compound?
The Cmax was 5.33 ng/mL.

What about the AUC(0-t) [1, 5] of the same compound?
The AUC(0-t) was 18.4 ng·h/mL.

And the Cmax [1, 6]?
Its Cmax is 5.7 ng/mL.

And the AUC(0-t) [1, 6]?
The AUC(0-t) was 21.6 ng·h/mL.

What about the Cmax [1, 7] of the same compound?
The Cmax was 5.72 ng/mL.

What about the AUC(0-t) [1, 7] of the same compound?
Its AUC(0-t) is 18.5 ng·h/mL.

What about the half-life ([1]; human, plasma, inhaled or intranasal, 1 mg, healthy subjects, single inhaled dose 1 mg, mean, read-out: t1/2 (converted)) of the same compound?
Its half-life is 19.3 h.

What about the Cmax [1, 8] of the same compound?
Its Cmax is 17.8 ng/mL.

And the AUC(0-t) [1, 8]?
The AUC(0-t) was 48.1 ng·h/mL.

What about the Cmax [1, 9] of the same compound?
Its Cmax is 18.2 ng/mL.

What about the AUC(0-t) [1, 9] of the same compound?
The AUC(0-t) was 52.3 ng·h/mL.

And the Cmax [1, 10]?
The Cmax was 14.1 ng/mL.

And the AUC(0-t) [1, 10]?
Its AUC(0-t) is 43.3 ng·h/mL.

And the half-life ([1]; human, plasma, inhaled or intranasal, 3 mg, healthy subjects, single inhaled dose 3 mg, mean, read-out: t1/2 (converted))?
Its half-life is 24.7 h.

And the Cmax [1, 11]?
Its Cmax is 54.6 ng/mL.

And the AUC(0-t) [1, 11]?
The AUC(0-t) was 191 ng·h/mL.

What about the Cmax [1, 12] of the same compound?
Its Cmax is 53.6 ng/mL.

What about the AUC(0-t) [1, 12] of the same compound?
Its AUC(0-t) is 204 ng·h/mL.

And the Cmax [1, 13]?
The Cmax was 50.9 ng/mL.

What about the AUC(0-t) [1, 13] of the same compound?
Its AUC(0-t) is 153 ng·h/mL.

What about the half-life ([1]; human, plasma, inhaled or intranasal, 10 mg, healthy subjects, single inhaled dose 10 mg, mean, read-out: t1/2 (converted)) of the same compound?
Its half-life is 23.1 h.

And the Tmax ([1]; human, plasma, inhaled or intranasal, healthy subjects, following single and multiple inhaled doses, read-out: Tmax)?
Its Tmax is about 1 h.

And the half-life ([1]; human, plasma, inhaled or intranasal, healthy subjects, following single and multiple inhaled doses, read-out: terminal elimination half-life (converted))?
The half-life was about 24 h.

And the AUC(0-inf) ([1]; human, plasma, inhaled or intranasal, healthy subjects, single inhaled dose 1 mg, mean)?
The AUC(0-inf) was 20.7 ng·h/mL.

What about the Tmax ([1]; human, plasma, inhaled or intranasal, healthy subjects, single inhaled dose 1 mg, median, read-out: Tmax) of the same compound?
Its Tmax is 1 h.

And the AUC(0-inf) ([1]; human, plasma, inhaled or intranasal, healthy subjects, single inhaled dose 3 mg, mean)?
The AUC(0-inf) was 48.6 ng·h/mL.

What about the Tmax ([1]; human, plasma, inhaled or intranasal, healthy subjects, single inhaled dose 3 mg, median, read-out: Tmax) of the same compound?
The Tmax was 1 h.

What about the AUC(0-inf) ([1]; human, plasma, inhaled or intranasal, healthy subjects, single inhaled dose 10 mg, mean) of the same compound?
The AUC(0-inf) was 169 ng·h/mL.

What about the Tmax ([1]; human, plasma, inhaled or intranasal, healthy subjects, single inhaled dose 10 mg, median, read-out: Tmax) of the same compound?
Its Tmax is 1 h.

And the “neutrophil and hemoglobin reductions, lipid changes” value ([1]; inhaled administration)?
Its value is “not observed”.

And the “Lung Tissue AUC(0-24)” value [2]?
The value was 54.5 µg·h/g.

And the “Plasma AUC(0-24)” value [2]?
The value was 943 ng·h/mL.

What about the fraction unbound [3] of the same compound?
Its fraction unbound is 0.019.

What about the “human plasma protein binding” value [3] of the same compound?
Its value is 98.1%.
